The values that follow come from US5817679A, “7-Azabicyclo[2.2.1]-heptane and -heptene derivatives as cholinergic receptor ligands” (priority 1994, dated 1998).

In assay [1] the target is T1, acetylcholine nicotinic receptor (Rattus norvegicus, UniProt P09483+P12390).
T1 construct: rat cortex as the tissue substrate; from tissue; host or cells: rat cortex
In words: Nicotinic receptor binding, [3H]-NMCI radioligand, rat cortex (Table 6). The procedure: Evaluation of Nicotinic Receptor Binding Activity
7-Aza-bicyclo[2.2.1]-heptanes and -heptenes were evaluated for their ability to bind to the acetylcholine nicotinic receptor using a standard binding assay, e.g. X. Zhang and A. Nordberg, Arch. Pharmacol., 348, 28 (1993); R. E. Middleton and J. B. Cohen, Biochemistry, 30, 6987 (1991), with nicotine sulfate as the reference compound, rat cortex as the tissue substrate, and a [^3 H]-NMCI radioligand.

Assay [2] can be described thus: Tail-flick assay in mice and rats (antinociception). In kind it is in vivo. Conditions: for Tail-Flick Assay ED50 % Effect After 5 min. / Tail-Flick Assay ED50 % Effect After 60 min.: (mg/kg). As to the method: Tail-Flick Assay in Mice and Rats
Female CD-1 mice (20-25 g, Charles River Labs) and male CD rats (300-400 g, Charles River Labs) were housed in groups of two and five, respectively. Animals were given food and water ad libitum. Most studies were performed using groups of 5 animals per treatment unless otherwise noted.
Antinociceptive effects (i.e., analgesia) of test compounds in mice and rats were measured by the tail-flick test using a tail-flick analgesia meter (EMDIE Instrument Co.). A maximum latency of 10 sec was imposed if no response occurred within that time. Antinociceptive activity, measured as % MPE, was calculated as [(test-control)/(10-control)×100)].
Duration of compound and (-)-nicotine-induced antinociception was assessed in mice by measuring antinociception at 2, 5, 10, 20 min after compound (20 μg/kg, s.c.) or nicotine (5 mg/kg, s.c.).
Mice (7/group) or rats were pretreated i.v. (0.9% saline or antagonist, mecamylamine, hexamethonium, atropine, naloxone or yohimbine) 10 minutes before administration of compound or nicotine at different doses. A control response (1.5-4 sec) was determined for each animal before treatment and test latencies were assessed at 5 minutes after compound administration (5 ml/kg, s.c.) or 2 min after nicotine (5 ml/kg, s.c.).

Assay [3] addresses T2, nicotinic cholinergic receptor (Rattus norvegicus, UniProt P09483+P12390).
T2 construct: A membrane fraction from rat brain cortex; tissue Harlan Laboratories; host or cells: rat brain cortex membranes
In words: Competition with [3H](-)-cytisine for binding to rat cortex (brain) receptors (Tables 7, 8). Particulars: Table 8, [3H](-)-cytisine, rat brain cortex membranes; read-out: Nicotine Receptor IC50. The source says:
Competition with Cytisine for Binding to Rat Cortex (Brain) Receptors
[^3 H](-)-Cytisine is a nicotinic cholinergic receptor ligand that binds with high affinity to the a4b2 subtype receptor, the major subtype in rodent brain accounting for >90% of (-)-nicotine binding sites (Flores, et al., 1992; Whiting, et al., 1992). This nicotinic receptor subtype is most sensitive to (-)-nicotine compared to other receptor subtypes (Connolly, et al., 1992). Compounds that compete with cytisine for the nicotinic cholineric receptor are considered nicotine receptor agonists.
A membrane fraction from rat brain cortex (Harlan Laboratories) was prepared using an adaptation of an established method (Pabreza, et al., 1991). Compound and [^3 H]-(-)-cytisine (New England Nuclear, 42 Ci/mmol) were mixed before addition of membrane (0.5 mg protein) and incubated in glass tubes for 75 minutes on ice; total assay volume was 0.24 ml. Parallel assays to determine nonspecific binding were incubated in the presence of 10 uM (-)-nicotine (Sigma). Bound radioactivity was isolated by vacuum filtration onto glass microfiber filters (Whatman, GF-B) using millipore tubs, followed by 3×4 ml buffer wash. Filters were prerinsed with 0.5% polyethyleneimine prior to sample filtration to reduce nonspecific binding. Bound radioactivity was quantitated by scintillation counting.

Assay [4] in a line: Analgesic activity, Straub-Tail assay (Table 5). The assay is classed as in vivo.
The nature of assay [5]: Analgesic activity, Straub-Tail assay (Table 5). In kind it is in vivo. Conditions: for ED50: Straub-Tail assay. The source says: A wide variety of biological assays have been used to evaluate the ability of a compound to act as an analgesic. Any of these known assays can be used to evaluate the analgesic ability of the compounds disclosed herein. The Straub-tail reaction, which is characteristic of opiate alkaloids, has been used as an assay for opiate agonists and antagonists. The assay is described in detail in Br. J. of Pharmacol. 1969, 36, 225. Another accepted assay for analgesic activity is the hot plate analgesia assay, described in J. of Pharmacol. Exp. Therap. 1953, 107, 385. An assay for the evaluation of the ability of a compound to bind to an opiate receptor is described in Mol. Pharmacol. 1974, 10, 868.
Evaluation of Analgesic Activity
Table 5 provides the analgesic activity measured as ED50 (μg/Kg) for selected compounds disclosed herein, as determined using the Straub-Tail assay, as describe by J. Daly et al. J. Am. […] Chem. Soc. 1992, 114, 3475; T. Li, et al. Bioorganic and Medicinal Chemistry Letters 1993, 3, 2759.

The conditions of assay [6]: opiate antagonist naloxone; cited from earlier work.
The test system of a further assay is opiate receptors. Particulars: in words; cited from earlier work.
The test system of assay [7] is nicotinic cholinergic receptor. Particulars: in words; cited from earlier work.
The test system of another assay is a4b2 subtype receptor. Conditions: in words; cited from earlier work.
Setting [8] is: Straub-Tail assay, read-out: ED50.

For the compound `C[N+]1(C)C2CCC1C(c1ccc(Cl)nc1)C2` (stereo not shown), the Inhibition % in assay [1] (testing level 10^-5 M) worked out at 104%; in [1] (testing level 10^-7 M), 100%.

For the compound `N=CN1C2CCC1C(c1ccc(Cl)nc1)C2` (stereo not shown), the Inhibition % in assay [1] (testing level 10^-7 M) was 104%.

Regarding `N=CN1C2CCC1C(c1cccnc1)C2` (stereo not shown), the Inhibition % in assay [1] (testing level 10^-7 M) came to 103.9%; in assay [1] (testing level 10^-8 M) it was 71.3%.

`Cc1noc(C2CC3CCC2N3C)n1` (stereo not shown) came in with a median effective dose (ED50) in [2] (Mus musculus, sc, Table 8) of 0.23 mg/kg.

For the compound `Cc1cc(C2CC3CCC2N3)on1` (stereo not shown), the IC50 in assay [3] amounted to 630 nM.

Regarding `Cc1cc(C2CC3CCC2N3C)on1` (stereo not shown), the IC50 in assay [3] turned out to be 24 nM.

As to `CN1C2CCC1C(c1ccc3ccccc3n1)C2` (stereo not shown), in assay [3], the IC50 amounted to 77 nM.

Consider `c1ccc2nc(C3CC4CCC3N4)ccc2c1` (stereo not shown), for which, in assay [3], the half-inhibitory concentration (IC50) stood at 7 nM.

Take `CN1[C@H]2CC[C@@H]1[C@@H](c1ccc(Cl)nc1)C2` (relative stereo): the ED50 in [4] (setting [8]) is < 0.01 mg/kg.

`COc1ccc([C@H]2C[C@@H]3CC[C@H]2N3)cn1` (relative stereo): the ED50 in assay [4] (setting [8]) was determined as 0.75 mg/kg.

As for `Clc1ccc([C@H]2C[C@@H]3CC[C@H]2N3CC2CC2)cn1` (relative stereo), the “effect in Straub-Tail assay” value in [5] (@ 1000 μg/Kg) came to 100%.

As for `Clc1ccc([C@H]2C[C@@H]3CC[C@H]2N3CCc2ccccc2)cn1` (relative stereo), the ED50 in assay [4] (setting [8]) is < 1 mg/kg.

Regarding `c1cncc([C@H]2C[C@@H]3CC[C@H]2N3)c1` (relative stereo), the ED50 in [4] (setting [8]) is 0.25 mg/kg.

`Clc1ccc([C@H]2C[C@@H]3C=C[C@H]2N3)cn1` (relative stereo): the ED50 in assay [4] (setting [8]) was < 1 mg/kg.

Consider `C[N+]1(C)[C@H]2CC[C@@H]1[C@@H](c1ccc(Cl)nc1)C2` (relative stereo), for which the ED50 in [4] (setting [8]) lay in the range of 0.1 to 0.2 mg/kg.

For the compound `Fc1ccc([C@H]2C[C@@H]3CC[C@H]2N3)cn1` (relative stereo), the ED50 in assay [4] (setting [8]) was ~0.05 mg/kg.

For `ClCCN1[C@H]2CC[C@@H]1[C@@H](c1ccc(Cl)nc1)C2` (relative stereo), the ED50 in assay [4] was ~0.1 mg/kg.

In the case of `N=CN1[C@H]2CC[C@@H]1[C@@H](c1ccc(Cl)nc1)C2` (relative stereo), in [5] (@ 100 (μg/Kg per column head)), the “effect in Straub-Tail assay” value is on record as 99%.

On to `CC(C)(C)Oc1ccc([C@H]2C[C@@H]3CC[C@H]2N3)cn1` (relative stereo), for which, in [4] (setting [8]), the ED50 was ~1 mg/kg.

The compound `Clc1ccc([C@H]2C[C@@H]3CC[C@H]2N3)cn1` (relative stereo) [drawing 50] gave a 50% effective dose (ED50) in [5] of 0.01 mg/kg.

As for `Clc1ccc([C@H]2C[C@@H]3CC[C@H]2N3)cn1` (relative stereo) [epibatidine, exo-2-(2-chloro-5-pyridyl)-7-azabicyclo[2.2.1]heptane], the “effect of naloxone on Straub-tail response” value in [6] is “not reversed by the opiate antagonist naloxone”. The “affinity for opiate receptors” value in the assay on opiate receptors was “negligible affinity”. Moreover, in assay [7], the “nicotinic cholinergic receptor activity” value is on record as “nicotinic cholinergic receptor agonist”.

With `O=c1cccc2n1C[C@@H]1CNC[C@H]2C1` [[^3 H](-)-Cytisine], the “affinity for a4b2 subtype receptor” value in the assay with a4b2 subtype receptor is listed as “high affinity”.

As for `Clc1ccc([C@@H]2C[C@H]3CC[C@@H]2N3)cn1` [d-epibatidine], the ED50 in assay [5] was > 0.1 mg/kg.

In the case of `c1cncc(C2CC3CCC2N3)c1` (stereo not shown) [drawing 40], in assay [4] (setting [8]), the ED50 was 10 mg/kg.

For the compound `c1cncc(C2CC3CCC2N3)c1` (stereo not shown) [drawing 55], the Inhibition % in [1] (testing level 10^-5 M) is on record as 104%; in [1] (testing level 10^-9 M), 103%.

`Cc1nnc(C2CC3CCC2N3C)o1` (stereo not shown) [drawing 60]: in assay [2], the “Tail-Flick Assay ED50 % Effect After 5 min.” value is on record as -2.9% and the “Tail-Flick Assay ED50 % Effect After 60 min.” value is -3.6%.

In the case of `Cc1nnc(C2CC3CCC2N3C)o1` (stereo not shown) [drawing 61], in assay [2], the “Tail-Flick Assay ED50 % Effect After 5 min.” value worked out at 6.7% and the “Tail-Flick Assay ED50 % Effect After 60 min.” value turned out to be 24.6%.
